According to US20140256687A1, “Agricultural and Horticultural Insecticide Composition and Method for Using the Same” (priority 2011, published 2014):

How the values were obtained:
Plutella xylostella = test: Control effect on Plutella xylostella (cabbage, greenhouse spray test); format: in vivo; details: spray 800 L/ha, g a.i./ha: flubendiamide 60, dichlorvos 400, profenofos 320; for Number of surviving larvae 2 days after treatment / Number of surviving larvae 6 days after treatment: 3rd-instar larvae on Brassica oleracea var. capitata, three plants per plot; for Control effect (%) 2 days after treatment / Control effect (%) 6 days after treatment: formula 1
Chilo suppressalis = test: Control effect on Chilo suppressalis (potted rice spray test); format: in vivo; details: spray 400 L/ha, g a.i./ha: flubendiamide 30, dichlorvos 393, profenofos 500; for Percentage of control (%): control effect by formula 2; for Percentage of control (%) / Percentage of damaged stems (%): 29 days after treatment; for Number of stems at 29 days after treatment, Damaged stems / Number of stems at 29 days after treatment, Normal stems: rice (Kinmaze) in pots, 60 larvae per pot
Method: Rice plants (variety: Kinmaze) were planted in 2-L pots and grown to a height of about 80 cm (about 82 days after transplantation, 18 to 25 sheaths). The depth of paddy water in each pot was adjusted to 4 cm and then spray treatment to the rice plants was conducted with an agrochemical solution diluted to a predetermined concentration in an amount equivalent to 400 L/ha. After the spray-treated plants were air-dried, each pot was covered with a vinyl chloride cylindrical cover 30 cm in height. At 1 day before the treatment and at 5 and 12 days after the treatment, 20 larvae of the test insect pest Chilo suppressalis were released into each of the covered pots (60 larvae in total per pot). At 29 days after the treatment, in each pot, the number of damaged stems of the rice plants was counted, the percentage of damaged stems was calculated, and from this percentage, the control effect was calculated according to formula 2. In addition, the expected value was calculated according to Colby's equation in the same manner as in Test Example 1.
Control effect (%)=100−(the percentage of damaged stems in a treatment plot/the percentage of damaged stems in a non-treatment plot)×100 <Formula 2>

What does the source list for `COP(=O)(OC)OC=C(Cl)Cl` [Dichlorvos, 2,2-dichlorovinyl dimethyl phosphate]?
Number of surviving larvae 2 days after treatment (Plutella xylostella): 188; Number of surviving larvae 6 days after treatment (Plutella xylostella): 212; Control effect (%) 2 days after treatment (Plutella xylostella): 16%; Control effect (%) 6 days after treatment (Plutella xylostella): 0%; Percentage of control (%) (Chilo suppressalis): 7.5%; Number of stems at 29 days after treatment, Damaged stems (Chilo suppressalis): 38; Number of stems at 29 days after treatment, Normal stems (Chilo suppressalis): 7; Percentage of damaged stems (%) (Chilo suppressalis): 84.4%

With `CCCSP(=O)(OCC)Oc1ccc(Br)cc1Cl` (stereo not drawn) [Profenofos, O-4-bromo-2-chlorophenyl O-ethyl S-propyl phosphorothioate] as the molecule, how does the “Number of surviving larvae 2 days after treatment” value (Plutella xylostella) read?
The value was 121.

And the “Number of surviving larvae 6 days after treatment” value (Plutella xylostella)?
Its value is 44.

And the “Control effect (%) 2 days after treatment” value (Plutella xylostella)?
Its value is 48%.

What about the “Control effect (%) 6 days after treatment” value (Plutella xylostella) of the same molecule?
The value was 80%.

And the “Percentage of control (%)” value (Chilo suppressalis)?
Its value is 27.7%.

And the “Number of stems at 29 days after treatment, Damaged stems” value (Chilo suppressalis)?
Its value is 35.

And the “Number of stems at 29 days after treatment, Normal stems” value (Chilo suppressalis)?
The value was 18.

And the “Percentage of damaged stems (%)” value (Chilo suppressalis)?
Its value is 66.0%.

For `Cc1cc(C(F)(C(F)(F)F)C(F)(F)F)ccc1NC(=O)c1cccc(I)c1C(=O)NC(C)(C)CS(C)(=O)=O` [Flubendiamide, 3-iodo-W-(2-mesyl-1,1-dimethylethyl)-N-{4-[1,2,2,2-tetrafluoro-1-(trifluoromethyl)ethyl]-o-tolyl}phthalamide], which “Number of surviving larvae 2 days after treatment” value (Plutella xylostella) is on record?
Its value is 307.

What about the “Number of surviving larvae 6 days after treatment” value (Plutella xylostella) of the same molecule?
The value was 56.

And the “Control effect (%) 2 days after treatment” value (Plutella xylostella)?
Its value is 39%.

What about the “Control effect (%) 6 days after treatment” value (Plutella xylostella) of the same molecule?
Its value is 88%.

What about the “Percentage of control (%)” value (Chilo suppressalis) of the same molecule?
The value was 54.0%.

What about the “Number of stems at 29 days after treatment, Damaged stems” value (Chilo suppressalis) of the same molecule?
The value was 21.

And the “Number of stems at 29 days after treatment, Normal stems” value (Chilo suppressalis)?
Its value is 29.

What about the “Percentage of damaged stems (%)” value (Chilo suppressalis) of the same molecule?
The value was 42.0%.
